Like-named read-outs stand apart in the source and are kept apart here.
Tests used:
[1] = tested on: Key Grass and Sedge Weeds as well as Grass Crops; assay: Post-emergent Test II herbicidal activity (Table 6); assay type: in vivo; settings: post-emergence, 336 h; for pest or weed control at 70 g/ha: application rate 70 g ai/ha; for pest or weed control at 140 g/ha: application rate 140 g ai/ha
Summary of the method: (§1)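 Spray rates: a highest rate plus ½×, ¼×, ⅛×, 1/16×, all delivered at 187 L/ha to plants at the first–second true leaf stage. Readout is a visual percent injury score at 14 d, where 100 means complete kill.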

[2] = tested on: Key Broadleaf Weed and Crop Species; assay: Post-emergent Test II herbicidal activity (Table 5); assay type: in vivo; settings: post-emergence, 336 h, post-emergent, 14 days after application; for pest or weed control at 70 g/ha: application rate 70 g ai/ha; for pest or weed control at 140 g/ha: application rate 140 g ai/ha
Summary of the method: as §1

[3] = CYPES: yellow nutsedge (Cyperus esculentus), read-out: Visual Growth Reduction (%) 14 Days After Application, CYPES
[4] = DIGSA: crabgrass (Digitaria sanguinalis), read-out: Visual Growth Reduction (%) 14 Days After Application, DIGSA
[5] = ECHCG: barnyardgrass (Echinochloa crus-galli), read-out: Visual Growth Reduction (%) 14 Days After Application, ECHCG
[6] = ORYSA: rice (Oryza sativa), read-out: Visual Growth Reduction (%) 14 Days After Application, ORYSA
[7] = SETFA: giant foxtail (Setaria faberi), read-out: Visual Growth Reduction (%) 14 Days After Application, SETFA
[8] = SORVU: grain sorghum (Sorghum vulgare), read-out: Visual Growth Reduction (%) 14 Days After Application, SORVU
[9] = TRZSS (wheat, Triticum aestivum), read-out: Visual Growth Reduction (%) 14 Days After Application, TRZSS
[10] = ZEAMX: maize, corn (Zea mays), read-out: Visual Growth Reduction (%) 14 Days After Application, ZEAMX
[11] = ABUTH: velvetleaf (Abutilon theophrasti), read-out: Visual Growth Reduction (%) 14 Days After Application, ABUTH
[12] = AMARE: redroot pigweed (Amaranthus retroflexus), read-out: Visual Growth Reduction (%) 14 Days After Application, AMARE
[13] = BRSNN: oilseed-rape, canola (Brassica napus), read-out: Visual Growth Reduction (%) 14 Days After Application, BRSNN
[14] = CHEAL: lambsquarters (Chenopodium album), read-out: Visual Growth Reduction (%) 14 Days After Application, CHEAL
[15] = EPHHL: wild poinsettia (Euphorbia heterophylla), read-out: Visual Growth Reduction (%) 14 Days After Application, EPHHL
[16] = HELAN: sunflower (Helianthus annuus), read-out: Visual Growth Reduction (%) 14 Days After Application, HELAN
[17] = VIOTR: wild pansy (Viola tricolor), read-out: Visual Growth Reduction (%) 14 Days After Application, VIOTR

SMILES: Cc1cc(F)c(-c2nc(C(=O)O)c(Cl)c(N)c2F)cc1F [Compound 194]
- pest or weed control at 70 g/ha [1, 3]: 0 to 29%
- pest or weed control at 140 g/ha [1, 3]: 0 to 29%
- pest or weed control at 70 g/ha [1, 4]: 0 to 29%
- pest or weed control at 140 g/ha [1, 4]: 0 to 29%
- pest or weed control at 70 g/ha [1, 5]: 0 to 29%
- pest or weed control at 140 g/ha [1, 5]: 0 to 29%
- pest or weed control at 70 g/ha [1, 6]: 0 to 29%
- pest or weed control at 140 g/ha [1, 6]: 0 to 29%
- pest or weed control at 70 g/ha [1, 7]: 45 to 59%
- pest or weed control at 140 g/ha [1, 7]: 60 to 74%
- pest or weed control at 70 g/ha [1, 8]: 0 to 29%
- pest or weed control at 140 g/ha [1, 8]: 0 to 29%
- pest or weed control at 70 g/ha [1, 9]: 0 to 29%
- pest or weed control at 140 g/ha [1, 9]: 0 to 29%
- pest or weed control at 70 g/ha [1, 10]: 0 to 29%
- pest or weed control at 140 g/ha [1, 10]: 0 to 29%
- melting point: 167.4 to 170.2 °C
- pest or weed control at 70 g/ha [2, 11]: 60 to 74%
- pest or weed control at 140 g/ha [2, 11]: 75 to 84%
- pest or weed control at 70 g/ha [2, 12]: 95 to 100%
- pest or weed control at 140 g/ha [2, 12]: 95 to 100%
- pest or weed control at 70 g/ha [2, 13]: 60 to 74%
- pest or weed control at 140 g/ha [2, 13]: 75 to 84%
- pest or weed control at 70 g/ha [2, 14]: 75 to 84%
- pest or weed control at 140 g/ha [2, 14]: 85 to 94%
- pest or weed control at 70 g/ha [2, 15]: 85 to 94%
- pest or weed control at 140 g/ha [2, 15]: 85 to 94%
- pest or weed control at 70 g/ha [2, 16]: 85 to 94%
- pest or weed control at 140 g/ha [2, 16]: 95 to 100%
- pest or weed control at 70 g/ha [2, 17]: 0 to 29%
- pest or weed control at 140 g/ha [2, 17]: 0 to 29%

SMILES: Nc1c(F)c(-c2cc(F)c(C(F)F)cc2F)nc(C(=O)O)c1Cl [Compound 178]
- pest or weed control at 70 g/ha [1, 3]: 85 to 94%
- pest or weed control at 140 g/ha [1, 3]: 85 to 94%
- pest or weed control at 70 g/ha [1, 4]: 0 to 29%
- pest or weed control at 140 g/ha [1, 4]: 45 to 59%
- pest or weed control at 70 g/ha [1, 5]: 60 to 74%
- pest or weed control at 140 g/ha [1, 5]: 85 to 94%
- pest or weed control at 70 g/ha [1, 6]: 0 to 29%
- pest or weed control at 140 g/ha [1, 6]: 0 to 29%
- pest or weed control at 70 g/ha [1, 7]: 85 to 94%
- pest or weed control at 140 g/ha [1, 7]: 85 to 94%
- pest or weed control at 70 g/ha [1, 8]: 45 to 59%
- pest or weed control at 140 g/ha [1, 8]: 60 to 74%
- pest or weed control at 70 g/ha [1, 9]: 30 to 44%
- pest or weed control at 140 g/ha [1, 9]: 45 to 59%
- pest or weed control at 70 g/ha [1, 10]: 0 to 29%
- pest or weed control at 140 g/ha [1, 10]: 30 to 44%
- melting point: 86.1 to 88.4 °C
- pest or weed control at 70 g/ha [2, 11]: 75 to 84%
- pest or weed control at 140 g/ha [2, 11]: 75 to 84%
- pest or weed control at 70 g/ha [2, 12]: 95 to 100%
- pest or weed control at 140 g/ha [2, 12]: 95 to 100%
- pest or weed control at 70 g/ha [2, 13]: 95 to 100%
- pest or weed control at 140 g/ha [2, 13]: 95 to 100%
- pest or weed control at 70 g/ha [2, 14]: 95 to 100%
- pest or weed control at 140 g/ha [2, 14]: 95 to 100%
- pest or weed control at 70 g/ha [2, 15]: 85 to 94%
- pest or weed control at 140 g/ha [2, 15]: 95 to 100%
- pest or weed control at 70 g/ha [2, 16]: 95 to 100%
- pest or weed control at 140 g/ha [2, 16]: 95 to 100%
- pest or weed control at 70 g/ha [2, 17]: 30 to 44%
- pest or weed control at 140 g/ha [2, 17]: 45 to 59%

Source: patent publication US9113629B2, “4-amino-6-(4-substituted-phenyl)-picolinates and 6-amino-2-(4-substituted-phenyl)-pyrimidine-4-carboxylates and their use as herbicides” (DOW AGROSCIENCES LLC, priority 2013, dated 2015)
